Here are results for five molecules from PMC2150313 (British Journal of Cancer, 1998).

Like-named read-outs stand apart in the source and are kept apart here.

Data set [1] is described as follows: Rat pharmacokinetics: plasma 4-OH-IF and chloroacetaldehyde after i.v. IF, with P450 inducer/inhibitor pretreatment. The text has this: British Joumal of Cancer (1998) 77(11), 1768-1776 ? […] Both reactions are catalysed by multiple liver P450 enzymes in vitro in isolated rat liver microsomes. […] The identification of those P450s that contribute specifically to these individual meta- bolic pathways is of particular interest, given the large degree of interindividual differences in the catalytic activities of specific P450s seen in human liver samples (Shimada et al, 1994). […] This complexation, in turn, results in an inhibition of these P450s. Inhibition of P450 2B 1 by non-covalent interaction with the haem ligand metyrapone (MTP) has also been reported (Waxman and Walsh, 1983; Halpert, 1995). […] MTP and other specialty chemi- cals were of the highest grade commercially available and were obtained from Aldrich Chemical (Milwaukee, WI, USA). Animals Male Fischer 344 rats (160-250 g; 7-11 weeks of age) were purchased from Taconic (Germantown, NY, USA). Animals were maintained in individual plastic cages under conditions of constant temperature (22?C), lighting (12-h dark-light cycle) and humidity, and provided with food and water ad libitum, in accordance with the National Institutes of Health Guide for the Care and Use of Laboratory Animals. Rat pharmacokinetics Surgery For kinetic studies, rats were implanted with an indwelling cannula (silicone medical grade/polyethylene tubing) in the right jugular vein to allow blood sampling and drug administration. Surgery was performed under ketamine (Ketaset 95 mg kg-') and xylazine (Rompun 12 mg kg-') anaesthesia 3-4 days before the kinetic experiment. After cannulation, a Rodent Infusion Set obtained from Lomin (Quebec, Canada) was used to withdraw blood samples at appropriate time intervals. Catheters were flushed daily with heparinized saline (20 U ml-') to prevent clotting. […] The sample was then diluted in 0.9% saline to the final required volume and the pH adjusted to pH 4 with 1 M sodium hydroxide. […] At each time point, the rats were given an injection of 0.5 ml of 0.9% saline through the catheter to replace the volume of blood withdrawn. […] Data shown at each pharmacokinetic sampling point are means ? s.d. values. […] Plasma samples (100 gl of supematant) were removed and stored at -80?C until analysis. Plasma proteins were precipitated by successive addition of 40 gl of ice-cold 5.5% (w/v) zinc sulphate, 40 gl of ice-cold saturated barium hydroxide and 20 gl of ice-cold 0.01 M hydrochloric acid. Samples were centrifuged for 15 min at 16 000 g, and 125 gl of the supernatant was added to 67 gl of a solution containing 6 mg of 3-amino- phenol and 6 mg of hydroxylamine hydrochloride dissolved in 1 ml of 1 M hydrochloric acid. Samples were heated at 90?C for 30 min in the dark, then allowed to cool to room temperature and diluted with 408 pl of distilled water before reading the fluores- cence (350 nm excitation and 515 nm emission) on a Shimadzu RF15 spectrofluorophotometer. […] CA present in the plasma samples was derivatized with thiourea to produce 2-aminothiazole, which was assayed by high-performance liquid chromatography (HPLC) after solid- phase extraction by a modification of published methods (Yu and Waxman, 1996). Briefly, a 208-gl aliquot of heparinized blood was immediately mixed with 1 mm formaldehyde to stabilize CA, and then deproteinized with 25.2 pl of ice-cold 70% perchloric acid. After centrifugation (16 000 g for 4 min) at room temperature, 140 pl of the supernatant was added to 21 pl of 100 mM thiourea. […] The derivatized samples were stored at -80?C until analysis (usually within 2 weeks). The 2-aminothia- zole product was isolated using a 100-mg Bond Elut SCX cation- exchange column (Varian), and then eluted, evaporated in vacuo in a Speed Vac and analysed by HPLC on an Alltech Econosphere C18 column with an absorbance detector operating at a wavelength of 254 nm.

Another data set has as its system rat liver microsomes. On the set-up: method as in Yu and Waxman, 1996. The settings on record: ref Yu and Waxman, 1996, cited from earlier work.
A further data set addresses T1, P450 2B1 (Rattus norvegicus, UniProt P00176).
T1 sequence (P00176 1-491): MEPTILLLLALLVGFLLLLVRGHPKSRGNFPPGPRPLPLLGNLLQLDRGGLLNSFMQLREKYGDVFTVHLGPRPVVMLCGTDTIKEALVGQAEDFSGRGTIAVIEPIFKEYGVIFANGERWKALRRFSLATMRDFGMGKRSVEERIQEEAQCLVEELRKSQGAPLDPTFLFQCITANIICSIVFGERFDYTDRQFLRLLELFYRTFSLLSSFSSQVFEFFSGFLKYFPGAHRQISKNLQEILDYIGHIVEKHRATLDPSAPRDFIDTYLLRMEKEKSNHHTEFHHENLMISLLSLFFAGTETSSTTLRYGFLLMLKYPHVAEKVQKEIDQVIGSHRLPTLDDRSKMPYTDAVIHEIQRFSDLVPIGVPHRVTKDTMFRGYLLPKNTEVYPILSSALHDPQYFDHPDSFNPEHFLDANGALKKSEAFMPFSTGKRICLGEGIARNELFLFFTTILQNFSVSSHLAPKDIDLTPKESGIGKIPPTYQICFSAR
The settings on record: isolated liver microsomes, vs untreated. (In general: Microsomes from liver hold many membrane-bound enzymes, among them those of drug oxidation.)

[2] abbreviates: after IF 100 mg kg-1 i.v., DEX 50 mg kg-1 for 3 days.
Setting [3] is: after IF 100 mg kg-1 i.v., PB20 rats given MTP 5 min before IF.

In the case of `O=P1(NCCCl)OCCC(O)N1CCCl` (stereo not drawn) [4-OH-IF, 4-hydroxy IF], the tmax in data set [1] (setting [2]) and in data set [1] (setting [3]) was 4 min each time. Also, the “tmax (time to reach peak plasma concentration)” value in data set [1] (after IF 100 mg kg-1 i.v., untreated (UT) rats) was in the range of 4 to 10 min.
For orientation: Cmax means the maximum level reached in the sampled fluid or tissue. For `O=CCCl` [CA, chloroacetaldehyde], the tmax in data set [1] (setting [2]) was 10 min; in data set [1] (setting [3]), 60 min; in data set [1] (after IF 100 mg kg-1 i.v., PB-pretreated rats (PB20 and PB80, Figure 1B and C)) it was 4 min. For the same molecule, the Cmax in data set [1] (plasma, IF 100 mg kg-1 i.v., PB80+TAO group (TAO 500 mg kg-1 2 h before IF), n=3) worked out at 172 µM.
Consider `O=P1(NCCCl)OCCCN1CCCl` (stereo not drawn) [IF, ifosfamide], for which the “extent of in vitro IF N-dechloroethylation, of total metabolism” value is 24% in the data set on rat liver microsomes (liver microsomes of DEX-treated male rats) and 47% in the data set on rat liver microsomes (liver microsomes of male rats without DEX treatment).
Consider `Cc1ccccc1C(OCCN(C)C)c1ccccc1` (stereo not drawn) [ORP, orphenadrine, reference compound], for which the “increase in CA half-life” value in data set [1] (male, Fischer 344, rat, in vivo, ip) was “approximately 30%”.
Regarding `CCC1(c2ccccc2)C(=O)NC(=O)NC1=O` [PB, phenobarbital], the results for the “induction of androstenedione 16β-hydroxylase activity” value on P450 2B1 (PB20 regimen) and on P450 2B1 (PB80 regimen) were “fivefold” and 7.5 fold, respectively.
